Molecular target: T1, human M2 receptor (Homo sapiens, UniProt P08172)
T1 sequence (P08172 1-466): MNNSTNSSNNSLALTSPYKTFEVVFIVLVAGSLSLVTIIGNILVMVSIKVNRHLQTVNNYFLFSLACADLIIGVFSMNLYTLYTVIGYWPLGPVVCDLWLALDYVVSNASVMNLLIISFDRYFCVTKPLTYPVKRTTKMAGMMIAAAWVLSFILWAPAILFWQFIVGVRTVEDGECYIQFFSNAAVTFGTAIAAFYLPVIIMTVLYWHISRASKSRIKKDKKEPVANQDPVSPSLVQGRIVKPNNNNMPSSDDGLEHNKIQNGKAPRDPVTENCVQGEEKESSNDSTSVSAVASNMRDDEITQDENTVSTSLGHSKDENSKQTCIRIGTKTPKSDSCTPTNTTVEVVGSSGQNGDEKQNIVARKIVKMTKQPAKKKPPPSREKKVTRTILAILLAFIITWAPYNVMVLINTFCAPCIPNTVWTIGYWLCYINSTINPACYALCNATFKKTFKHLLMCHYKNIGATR
Conditions: M2-GIRK1/4 reporter cells; for EC50: Receptor activity EC50, allosteric potency at EC20 acetylcholine, in some cases mean of two or more determinations; for Emax: read-out: Efficiency, boosting of the acetylcholine effect at EC20 acetylcholine concentration

Row | EC50 | Emax | SMILES
1 | 38 nM | 100% | CC(C)(C)NC(=O)c1cn(-c2c(F)cc(F)cc2F)c2nc(N3C[C@@H](O)[C@H](O)C3)ccc2c1=O [Example 479, N-tert-Butyl-7-[(3R,4R)-3,4-dihydroxypyrrolidin-1-yl]-4-oxo-1-(2,4,6-trifluorophenyl)-1,4-dihydro-1,8-naphthyridine-3-carboxamide]
2 | 46 nM | 100% | C[C@@H](NC(=O)c1cn(-c2c(F)cc(F)cc2F)c2nc(N3C[C@@H](O)CC3=O)ccc2c1=O)C1CC1 [Example 480, N-[(1R)-1-Cyclopropylethyl]-7-[(4S)-4-hydroxy-2-oxopyrrolidin-1-yl]-4-oxo-1-(2,4,6-trifluorophenyl)-1,4-dihydro-1,8-naphthyridine-3-carboxamide]
3 | 10 nM | 100% | CC(C)(NC(=O)c1cn(-c2c(F)cc(F)cc2F)c2nc(N3C[C@@H](O)CC3=O)ccc2c1=O)C1CC1 [Example 481, N-(2-Cyclopropylpropan-2-yl)-7-[(4S)-4-hydroxy-2-oxopyrrolidin-1-yl]-4-oxo-1-(2,4,6-trifluorophenyl)-1,4-dihydro-1,8-naphthyridine-3-carboxamide]
4 | 54 nM | 92.5% | CC(C)[C@@H](C)NC(=O)c1cn(-c2c(F)cc(F)cc2F)c2nc(N3C[C@@H](O)[C@H](O)C3)ccc2c1=O [Example 483, 7-[(3R,4R)-3,4-Dihydroxypyrrolidin-1-yl]-N-[(2R)-3-methylbutan-2-yl]-4-oxo-1-(2,4,6-trifluorophenyl)-1,4-dihydro-1,8-naphthyridine-3-carboxamide]
5 | 103 nM | 91.5% | CN1CCN(c2ccc3c(=O)c(C(=O)N[C@@H](C4CC4)C(F)(F)F)cn(-c4c(F)cc(F)cc4F)c3n2)CC1 [Example 490]
6 | 106 nM | 85.5% | CN(C[C@H](O)CO)c1ccc2c(=O)c(C(=O)N[C@@H](C3CC3)C(F)(F)F)cn(-c3c(F)cc(F)cc3F)c2n1 [Example 491]
7 | 44 nM | 97.5% | O=C(N[C@@H](C1CC1)C(F)(F)F)c1cn(-c2c(F)cc(F)cc2F)c2nc(N3CC4(COC4)C3)ccc2c1=O [Example 492]
8 | 31 nM | 99.5% | CC[C@H](NC(=O)c1cn(-c2c(F)cc(F)cc2F)c2nc(N(C)C[C@@H](C)O)ccc2c1=O)C(F)(F)F [Example 495]
9 | 67 nM | 89% | CC[C@H](NC(=O)c1cn(-c2c(F)cc(F)cc2F)c2nc(N3CCN(C)CC3)ccc2c1=O)C(F)(F)F [Example 496]
10 | 29 nM | 92% | CC[C@H](NC(=O)c1cn(-c2c(F)cc(F)cc2F)c2nc(N(C)C[C@H](C)O)ccc2c1=O)C(F)(F)F [Example 497]
11 | 60 nM | 83.5% | CC[C@H](NC(=O)c1cn(-c2c(F)cc(F)cc2F)c2nc(N3CC4(COC4)C3)ccc2c1=O)C(F)(F)F [Example 498]
12 | 63 nM | 96% | CC[C@H](NC(=O)c1cn(-c2c(F)cc(F)cc2F)c2nc(NC(C)(C)C)ccc2c1=O)C(F)(F)F [Example 499]
13 | 76 nM | 100% | CC[C@H](NC(=O)c1cn(-c2c(F)cc(F)cc2F)c2nc(N3CCC(CO)(CO)CC3)ccc2c1=O)C(F)(F)F [Example 500]
14 | 58 nM | 98% | CC[C@H](NC(=O)c1cn(-c2c(F)cc(F)cc2F)c2nc(N3CC(F)C3)ccc2c1=O)C(F)(F)F [Example 501]
15 | 30 nM | 91% | O=C(N[C@@H](C1CC1)C(F)(F)F)c1cn(-c2c(F)cc(F)cc2F)c2nc(N3CC(CO)(CO)C3)ccc2c1=O [Example 502, 7-[3,3-Bis(hydroxymethyl)azetidin-1-yl]-N-[(1S)-1-cyclopropyl-2,2,2-trifluoroethyl]-4-oxo-1-(2,4,6-trifluorophenyl)-1,4-dihydro-1,8-naphthyridine-3-carboxamide]
16 | 85 nM | 88.5% | CC[C@H](NC(=O)c1cn(-c2c(F)cc(F)cc2F)c2nc(N3C[C@@H](NC(C)=O)CC3=O)ccc2c1=O)C(F)(F)F [Example 517, 7-[(4S)-4-Acetamido-2-oxopyrrolidin-1-yl]-4-oxo-N-[(2S)-1,1,1-trifluorobutan-2-yl]-1-(2,4,6-trifluorophenyl)-1,4-dihydro-1,8-naphthyridine-3-carboxamide]
17 | 470 nM | 99.5% | CC[C@H](NC(=O)c1cn(-c2c(F)cc(F)cc2F)c2nc(N3CC(CNC(C)=O)CC3=O)ccc2c1=O)C(F)(F)F (stereo partly drawn) [Example 518, 7-[4-(Acetamidomethyl)-2-oxopyrrolidin-1-yl]-4-oxo-N-[(2S)-1,1,1-trifluorobutan-2-yl]-1-(2,4,6-trifluorophenyl)-1,4-dihydro-1,8-naphthyridine-3-carboxamide]
18 | 5 nM | 100% | CC(C)C[C@H](NC(=O)c1cn(-c2c(F)cc(F)cc2F)c2nc(N3C[C@@H](O)CC3=O)ccc2c1=O)C(F)(F)F [Example 525, 7-[(4S)-4-Hydroxy-2-oxopyrrolidin-1-yl]-oxo-N-[(2S)-1,1,1-trifluoro-4-methylpentan-2-yl]-1-(2,4,6-trifluorophenyl)-1,4-dihydro-1,8-naphthyridine-3-carboxamide]
19 | 8 nM | 98% | CC(C)C[C@@H](NC(=O)c1cn(-c2c(F)cc(F)cc2F)c2nc(N3C[C@@H](O)[C@H](O)C3)ccc2c1=O)C(F)(F)F [Example 544, 7-[(3R,4R)-3,4-Dihydroxypyrrolidin-1-yl]-4-oxo-N-[(2R)-1,1,1-trifluoro-4-methylpentan-2-yl]-1-(2,4,6-trifluorophenyl)-1,4-dihydro-1,8-naphthyridine-3-carboxamide]
20 | 8 nM | 99% | O=C(NC(CC(F)(F)F)C(F)(F)F)c1cn(-c2c(F)cc(F)cc2F)c2nc(N3C[C@@H](O)[C@H](O)C3)ccc2c1=O (stereo partly drawn) [Example 545, 7-[(3R,4R)-3,4-Dihydroxypyrrolidin-1-yl]-N-[1,1,1,4,4,4-hexafluorobutan-2-yl]-4-oxo-1-(2,4,6-trifluorophenyl)-1,4-dihydro-1,8-naphthyridine-3-carboxamide]
21 | 10 nM | 100% | O=C(N[C@@H](C1CC1)C(F)(F)F)c1cn(-c2c(F)cc(F)cc2Cl)c2nc(N3C[C@@H](O)[C@H](O)C3)ccc2c1=O [Example 546, 1-(2-Chloro-4,6-difluorophenyl)-N-[(1 S)-1-cyclopropyl-2,2,2-trifluoroethyl]-7-[(3R,4R)-3,4-dihydroxypyrrolidin-1-yl]-4-oxo-1,4-dihydro-1,8-naphthyridine-3-carboxamide]
22 | 10 nM | 100% | O=C(NC(C(F)(F)F)C(F)(F)F)c1cn(-c2c(F)cc(F)cc2F)c2nc(N3C[C@@H](O)CC3=O)ccc2c1=O [Example 555, N-(1,1,1,3,3,3-Hexafluoropropan-2-yl)-7-[(4S)-4-hydroxy-2-oxopyrrolidin-1-yl]-4-oxo-1-(2,4,6-trifluorophenyl)-1,4-dihydro-1,8-naphthyridine-3-carboxamide]
23 | 10 nM | 99% | CC(C)C[C@H](NC(=O)c1cn(-c2c(F)cc(F)cc2F)c2nc(N3C[C@@H](O)[C@H](O)C3)ccc2c1=O)C(F)(F)F [Example 559, 7-[(3R,4R)-3,4-Dihydroxypyrrolidin-1-yl]-4-oxo-N-[(2S)-1,1,1-trifluoro-4-methylpentan-2-yl]-1-(2,4,6-trifluorophenyl)-1,4-dihydro-1,8-naphthyridine-3-carboxamide]
24 | 16 nM | 96.5% | CC[C@H](NC(=O)c1cn(-c2c(F)cc(F)cc2Cl)c2nc(N3C[C@@H](O)[C@H](O)C3)ccc2c1=O)C(F)(F)F [Example 566, 1-(2-Chloro-4,6-difluorophenyl)-7-[(3R,4R)-3,4-dihydroxypyrrolidin-1-yl]-4-oxo-N-[(2S)-1,1,1-trifluorobutan-2-yl]-1,4-dihydro-1,8-naphthyridine-3-carboxamide]
25 | 12 nM | 100% | O=C(NC(C(F)(F)F)C(F)(F)F)c1cn(-c2c(F)cc(F)cc2F)c2nc(N3C[C@@H](O)[C@H](O)C3)ccc2c1=O [Example 572, 7-[(3R,4R)-3,4-Dihydroxypyrrolidin-1-yl]-N-(1,1,1,3,3,3-hexafluoropropan-2-yl)-4-oxo-1-(2,4,6-trifluorophenyl)-1,4-dihydro-1,8-naphthyridine-3-carboxamide]
26 | 13 nM | 96% | COC(=O)N1CCN(c2ccc3c(=O)c(C(=O)NC(C)(C)CC(F)(F)F)cn(-c4c(F)cc(F)cc4F)c3n2)CC1 [Example 575, Methyl 4-{5-oxo-6-[(4,4,4-trifluoro-2-methylbutan-2-yl)carbamoyl]-8-(2,4,6-trifluorophenyl)-5,8-dihydro-1,8-naphthyridin-2-yl}piperazine-1-carboxylate]
27 | 14 nM | 97.5% | CC1C(=O)N(c2ccc3c(=O)c(C(=O)N[C@@H](C4CC4)C(F)(F)F)cn(-c4c(F)cc(F)cc4F)c3n2)CC1O (stereo partly drawn) [Example 579, N-[(1 S)-1-Cyclopropyl-2,2,2-trifluoroethyl]-7-[4-hydroxy-3-methyl-2-oxopyrrolidin-1-yl]-4-oxo-1-(2,4,6-trifluorophenyl)-1,4-dihydro-1,8-naphthyridine-3-carboxamide]

Source: patent US20190367516A1 (Bayer Pharma Aktiengesellschaft, priority 2015, published 2019)
